Reference: patent US11542249B2, “BTK inhibitor compounds” (Eli Lilly and Company, priority 2017, dated 2023)

Experiments:
human BTK = human BTK (Homo sapiens (Human), UniProt Q06187); assay: BTK LANTHASCREEN Eu Kinase Binding Assay; settings: IC50 value ± standard deviation; full-length His-labeled BTK, kinase tracer 236; read-out: hBTK Rel IC50
Experimental: (§1) BTK and EGFR in Vitro Assays:
(§2) The BTK and EGFR biochemical assays utilize LANTHASCREEN® Eu Kinase Binding Assays from Thermo Fisher Scientific, measuring the binding of the kinase with a […] tracer. The assay buffer consists of 50 mM HEPES pH 7.5, 0.01% BRU™-35, 10 mM MgCl2, 1 mM EGTA, and 1 mM DTT. The test compounds are diluted and added to the assay plate with a Labcyte ECHO® 555 liquid handler. The compounds are tested in 10 point dose response curves (100 μM-0.005 μM) with a maximum DMSO concentration of 1%. The assays are performed in 20 μL in low-volume 384-well white proxiplates. For the BTK assay, the concentration of full-length His-labeled BTK in the assay is 5 nM, the Eu-anti-His antibody is 2 nM, and the kinase tracer 236 is 60 nM. For the EGFR assay, the concentration of truncated (amino acids 668-1210) GST-labeled EGFR is 5 nM, the Eu-anti-GST antibody is 2 nM, and the kinase tracer 199 is 10 nM. The components of the assay (compound, enzyme/antibody, tracer) are assembled and incubated for 30 min prior to being read on a Perkin-Elmer EnVision with excitation at 340 nm, tracer emission at 665 nm, and antibody emission at 615 nm. The signal ratio is converted to percent inhibition using the following equation: % Inhibition=100−[(Test Compound−Median Minimum)/(Median Maximum−Median Minimum)×100].
(§3) The following Table 1 and Table 2 describes the relative IC50 data vs. human BTK, human EGFR, and human whole blood CD69.

human EGFR = human EGFR (Homo sapiens (Human), UniProt P00533); assay: EGFR LANTHASCREEN Eu Kinase Binding Assay; settings: IC50 value ± standard deviation; truncated GST-labeled EGFR, kinase tracer 199; read-out: hEGFR Rel IC50
Experimental: as §1, §2

[1] = system: activated B cells in human whole blood (CD69); assay: Human Whole Blood CD69 in vitro assay (B cell activation, flow cytometry); format: cell-based; settings: IC50 value ± standard deviation, anti-human-IgD-Dextran stimulation, read-out: HWB CD69 Rel IC50
Experimental: Human Whole Blood CD69 in Vitro Assay:
The HWB CD69 assay measures activated B cells in human whole blood using a flow cytometer. Compounds are diluted and added to assay plates with a Labcyte ECHO® 555 liquid handler. Compounds are tested in 10 point dose response curves (20 μM-0.001 μM) in 96-well v-bottom plates with a maximum DMSO concentration of 0.2%. Fresh blood from individual healthy volunteer is mixed with HEPES (0.5 ml HEPES added per 10 ml blood) and 100 μl/well is added to compound plates. The plates are sealed and incubated in a 37° C. incubator for 3 h. Anti-human-IgD-Dextran is added to each well to give a final concentration of 100 ng/ml, mixed, and put back into the incubator. After 1 h, the cells are washed with cold FACS buffer and transferred to a deep well plate. The cells are incubated with anti-human CD69-PE (BIOLEGEND®, clone FN50) and anti-human CD19-APC (BIOLEGEND®, clone HIB19) antibodies on ice for 20 min. The cells are washed and incubated in eBioscience™ 1-step Fix/Lyse solution (10×) at RT to lyse the red blood cells and fix the other cells. The white cells are pelleted and washed in FACS buffer and then brought up in read buffer. The suspended cells are transferred to 96-well round bottom plates and read on an IntelliCyt iQue® Screener Plus flow cytometer. From the SSC (Side Scatter Channel) vs FSC (Forward Scatter Channel) graph, the lymphocytes are identified. Lymphocytes are identified with gated on positive CD19 marker for quantify CD69 (a marker of activated B lymphocytes) MFI (mean fluorescent intensity/cell). The signal ratio is converted to percent inhibition using the following equation: % Inhibition=100−[(Test Compound−Median Min)/(Median Max−Median Min)×100].
as §3

Rat Oral Bioavailability = format: in vivo, Sprague-Dawley rats; settings: Sprague-Dawley, plasma, PO 3 mg/kg vs IV 1 mg/kg, read-out: Rat Oral Bioavailability (% F)
Experimental: The test compound is administered to Sprague-Dawley rats intravenously (IV) at 1 mg/kg (using vehicles of either: 20% CAPTISOL® in 25 mM sodium phosphate buffer, pH2 quantum satis; or 25% DMA, 15% EtOH, 10% propylene glycol, 25% 2-pyrrolidone, and 25% purified water) and orally (PO) at 3 mg/kg (using a vehicle of 1% hydroxyethyl cellulose, 0.25% polysorbate 80, 0.05% Antifoam 1510-US, and purified water quantum satis). Serial blood samples are collected at 0.08, 0.25, 0.5, 1, 2, 4, 8, and 12 h post dose for IV bolus and at 0.25, 0.5, 1, 2, 4, 8, and 12 h post dose after oral administration. After treatment with an EDTA […], plasma is obtained by centrifugation and stored at −70° C. until analysis by LC-MS/MS. Test article concentration is determined in plasma and uploaded into the Watson LIMS™ system where noncompartmental analysis is used to calculate Area Under the Curve (AUC) for both IV and PO arms. Bioavailability (% F) is calculated via the following equation, %F=(AUCPO×DoseIV)/(AUCIV×DosePO)×100. Table 3 indicates the rat oral bioavailability of select BTK inhibitors.

[2] = system: type II collagen-induced arthritis (CIA) rat model; assay: Rat In Vivo Collagen-Induced Arthritis Assay; design: species or system Female Lewis rats; settings: for % inhibition paw thickness AUC vs Vehicle control / % paw thickness AUC (mm) ± SE: CIA rats, 9 days; for arthritis severity in CIA rats: compared to vehicle treated CIA rats
Experimental: A type II collagen-induced arthritis (CIA) rat model may be used to evaluate the therapeutic effects of compounds. Female Lewis rats (Charles River Charles River Laboratories, Inc.) with a mean body weight of 155-175 g are used for the study. Animals are fed with standard rodent chow and provided water ad libitum. Immunization emulsion is prepared with 2 mg/ml bovine collagen-II mixed with an equal volume of incomplete Freund's adjuvant (IFA). Rats are immunized intradermally with 0.4 ml collagen emulsion in two sites each on the lower lumbar region, above the base of the tail on day 1, and again on day 8. Animals are randomized based on the paw thickness and body weight on day 11 into study groups, with 8 rats in each group. Compounds are prepared in 1% HEC/0.25% P80/0.05% anti-foam in purified water and dosed daily via oral gavage for 9 days. Paw thickness is quantitated daily using a caliper measurement in the right ankle site.
The inhibition by the compounds of the invention is evaluated using Dunnett's post test for multiple comparisons for the CIA rat groups treated with the indicated Example compound, at the indicated dose, as compared to CIA rat groups treated with vehicle, and differences of P<0.05 are considered to be significant. […] Mean sum paw thickness is decreased compared to vehicle treated CIA rats. Mean percent paw thickness inhibition during the treatment period illustrates dose-related improvement.
Table 4 indicates the in vivo activity for exemplified BTK inhibitors in the collagen-induced arthritis model (SE=standard error).

Sequence of human EGFR (P00533 668-1210): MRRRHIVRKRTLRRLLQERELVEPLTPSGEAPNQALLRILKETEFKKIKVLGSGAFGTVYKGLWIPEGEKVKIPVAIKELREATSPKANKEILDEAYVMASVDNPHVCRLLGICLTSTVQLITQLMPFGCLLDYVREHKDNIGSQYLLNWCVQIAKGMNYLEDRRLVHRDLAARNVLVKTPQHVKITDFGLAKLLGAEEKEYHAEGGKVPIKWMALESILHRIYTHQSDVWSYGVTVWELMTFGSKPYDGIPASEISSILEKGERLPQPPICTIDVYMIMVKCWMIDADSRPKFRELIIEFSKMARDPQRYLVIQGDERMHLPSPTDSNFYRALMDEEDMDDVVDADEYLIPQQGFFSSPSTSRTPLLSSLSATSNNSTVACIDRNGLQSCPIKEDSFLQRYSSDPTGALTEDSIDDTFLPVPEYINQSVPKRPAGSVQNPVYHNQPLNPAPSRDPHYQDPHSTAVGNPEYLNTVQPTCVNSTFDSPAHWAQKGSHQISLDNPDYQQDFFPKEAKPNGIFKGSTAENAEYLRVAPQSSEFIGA
Sequence of human BTK (Q06187 whole entry): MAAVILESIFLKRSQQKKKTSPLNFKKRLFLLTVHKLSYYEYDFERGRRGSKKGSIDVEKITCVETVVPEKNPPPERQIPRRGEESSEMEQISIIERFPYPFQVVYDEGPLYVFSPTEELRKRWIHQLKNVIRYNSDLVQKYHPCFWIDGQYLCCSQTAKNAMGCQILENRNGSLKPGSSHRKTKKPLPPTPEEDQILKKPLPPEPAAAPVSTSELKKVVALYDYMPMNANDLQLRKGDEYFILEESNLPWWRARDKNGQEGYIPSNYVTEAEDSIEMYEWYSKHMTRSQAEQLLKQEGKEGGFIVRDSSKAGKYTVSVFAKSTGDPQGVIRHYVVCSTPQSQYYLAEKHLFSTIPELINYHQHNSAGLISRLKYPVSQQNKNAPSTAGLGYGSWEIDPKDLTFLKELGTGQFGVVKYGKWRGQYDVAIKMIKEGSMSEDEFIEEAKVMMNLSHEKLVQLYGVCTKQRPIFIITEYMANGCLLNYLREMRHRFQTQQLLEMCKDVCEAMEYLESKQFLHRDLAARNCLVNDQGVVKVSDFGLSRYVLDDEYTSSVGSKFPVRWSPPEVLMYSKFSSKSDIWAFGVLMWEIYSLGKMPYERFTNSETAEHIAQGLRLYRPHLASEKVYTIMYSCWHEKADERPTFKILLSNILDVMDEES

Structure (SMILES)	IC50 (human BTK) [nM]	IC50 (human EGFR) [nM]	IC50 [1] [nM]	bioavailability (Rat Oral Bioavailability) [%]	% inhibition paw thickness AUC vs Vehicle control ([2]; 1 mg/kg/d oral) [%]	% paw thickness AUC (mm) ± SE ([2]; 1 mg/kg/d oral) [mm]	% inhibition paw thickness AUC vs Vehicle control ([2]; 3 mg/kg/d oral) [%]	% paw thickness AUC (mm) ± SE ([2]; 3 mg/kg/d oral) [mm]	% inhibition paw thickness AUC vs Vehicle control ([2]; 10 mg/kg/d oral) [%]	% paw thickness AUC (mm) ± SE ([2]; 10 mg/kg/d oral) [mm]	arthritis severity in CIA rats [2]	% inhibition paw thickness AUC vs Vehicle control ([2]; 0.3 mg/kg/d oral) [%]	% paw thickness AUC (mm) ± SE ([2]; 0.3 mg/kg/d oral) [mm]
C=CC(=O)N1CC(Nc2cncc(-c3cnc(Oc4cccc(Cl)c4)nc3)n2)C1 [Example 31, 1-[3-[[6-[2-(3-chlorophenoxy)pyrimidin-5-yl]pyrazin-2-yl]amino]azetidin-1-yl]prop-2-en-1-one]	9.49 ± 3.21	366 ± 87	419 ± 118	54.1	62	66.10 ± 1.83	81	63.70 ± 0.96	82	64.33 ± 1.00	dose-related reduction		
C=CC(=O)N1CCC(Nc2cncc(-c3cnc(Oc4cccc(Cl)c4)nc3)n2)CC1 [Example 44, 1-[4-[[6-[2-(3-chlorophenoxy)pyrimidin-5-yl]pyrazin-2-yl]amino]-1-piperidyl]prop-2-en-1-one]	6.11	207 ± 31.9	126 ± 29.7	36.8									
C=CC(=O)N1CC[C@H](Nc2cncc(-c3cnc(Nc4cccc(OC(F)(F)F)c4)nc3)n2)C1 [Example 33, 1-[(3S)-3-[[6-[2-[3-(trifluoromethoxy)anilino]pyrimidin-5-yl]pyrazin-2-yl]amino]pyrrolidin-1-yl]prop-2-en-1-one]	9.44 ± 2.26	22200 ± 19500	261 ± 145	44.6	52	68.32 ± 2.30	59	67.00 ± 1.52			dose-related reduction	24	73.61 ± 2.09
C=CC(=O)N1CC(Nc2cncc(-c3cnc(Oc4cccc(OC(F)(F)F)c4)nc3)n2)C1 [Example 27, 1-[3-[[6-[2-[3-(trifluoromethoxy)phenoxy]pyrimidin-5-yl]pyrazin-2-yl]amino]azetidin-1-yl]prop-2-en-1-one]	33.7 ± 10.8	10400 ± 11500	664 ± 314	38.4	24	73.30 ± 0.95	45	69.58 ± 1.26			dose-related reduction		
C=CC(=O)N1CC(Nc2cncc(-c3cnc(Oc4cccc(OC(F)F)c4)nc3)n2)C1 [Example 24, 1-[3-[[6-[2-[3-(difluoromethoxy)phenoxy]pyrimidin-5-yl]pyrazin-2-yl]amino]azetidin-1-yl]prop-2-en-1-one]	8.53 ± 3.24		177 ± 41.6	41	28	65.04 ± 2.31	49	61.43 ± 4.47	63	59.24 ± 1.49	dose-related reduction		
C=CC(=O)N1CC[C@H](Nc2cncc(-c3cnc(Oc4cccc(OC(F)F)c4)nc3)c2)C1 [Example 5, 1-[(3S)-3-[[5-[2-[3-(difluoromethoxy)phenoxy]pyrimidin-5-yl]-3-pyridyl]amino]pyrrolidin-1-yl]prop-2-en-1-one]			485 ± 234	36.6	34	71.68 ± 2.24	58	67.18 ± 1.07					
C=CC(=O)N1CCC(Nc2cncc(-c3cnc(Nc4cccc(Cl)c4)nc3)c2)CC1 [Example 19, 1-[4-[[5-[2-(3-chloroanilino)pyrimidin-5-yl]-3-pyridyl]amino]-1-piperidyl]prop-2-en-1-one]	< 5	523 ± 112	148 ± 33.1	79.2									
